{"source": "patent US4647408A", "about": "“Carbapenem-type antibiotics” (Shionogi & Co., Ltd., priority 1983, dated 1987)", "key": {"[1]": {"biological_target": "T1, β-lactamase (cephalosporinase type) of Enterobacter cloacae 92 (Enterobacter cloacae, UniProt P05364)", "T1 construct": "supernatant of sonicated, washed cells of the producing strain (crude cell-free extract)", "T1 sequence (P05364 21-381)": "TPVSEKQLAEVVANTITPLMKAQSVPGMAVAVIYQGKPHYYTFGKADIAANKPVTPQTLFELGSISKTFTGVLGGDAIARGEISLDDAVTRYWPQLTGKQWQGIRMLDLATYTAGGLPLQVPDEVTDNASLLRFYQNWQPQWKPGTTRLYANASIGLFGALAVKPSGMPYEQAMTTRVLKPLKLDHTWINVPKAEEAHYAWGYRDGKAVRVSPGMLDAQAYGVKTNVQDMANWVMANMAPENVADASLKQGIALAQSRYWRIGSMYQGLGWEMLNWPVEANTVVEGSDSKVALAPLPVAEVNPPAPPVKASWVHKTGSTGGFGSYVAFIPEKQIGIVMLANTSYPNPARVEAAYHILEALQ", "test": "β-lactamase inhibitory activity, inhibition of hydrolysis of the substrate", "format": "biochemical", "details": "β-lactamase of Enterobacter cloacae 92, cephalosporinase type; pH 7.0, 10 min preincubation, read after 20 min", "excerpt": "(§1) (2) Test on the β-lactamase inhibitory activity:\n(§2) The β-lactamase inhibitory activity is expressed as a minimum concentration (μg/ml) of the test compound which is required to inhibit the hydrolysis of the substrate by β-lactamase. The supernatant, which has been obtained by means of breaking the washed cells of the β-lactamase-producing microorganisms in a buffer with ultrasonic waves and then centrifuging the consequent cell-free extract, is employed as a standard β-lactamase.\n(§3) A test compound is successively diluted with a buffer (pH 7.0) by a two-fold dilution method, the standard β-lactamase in added to each of the diluted solutions, then the mixture is allowed to stand for 10 minutes, and an indicator is added therein. The minimum inhibitory concentration at which no color is developed after observation for 20 minutes, is determined.\n*^1 Producing cephalosporinasetype lactamase"}, "[2]": {"system": "β-lactamase (penicillinase type) of Klebsiella sp. 363", "test": "β-lactamase inhibitory activity, inhibition of hydrolysis of the substrate", "format": "biochemical", "details": "β-lactamase of Klebsiella sp. 363, penicillinase type; pH 7.0, 10 min preincubation, read after 20 min", "excerpt": "as §1, §2, §3\n*^2 Producing penicillinasetype lactamase"}, "[3]": {"system": "Gram-positive and Gram-negative microorganisms", "test": "Antimicrobial activity (general statement)", "format": "cell-based", "details": "statement in words", "excerpt": "(§4) Results of the tests on the antimicrobial activities and β-lactamase inhibitory activities are summarized as follows."}, "[4]": {"system": "β-lactamase", "test": "β-lactamase inhibitory activity (general statement)", "format": "biochemical", "details": "statement in words", "excerpt": "as §4, §2, §3"}, "[5]": {"system": "Enterobacter cloacae 233", "test": "Antimicrobial activity, agar dilution method", "format": "cell-based", "details": "inoculum 10^6 cells/ml, sensitivity disc agar, 37° C. overnight, read-out: Minimum Inhibitory Concentration", "experimental": "(§5) (1) Antimicrobial Activity:\n(§6) Test microorganism Concentration (μg/ml)\n(§7) Determined by agar dilution method: Inoculum size 10^6 cells/ml,\n(§8) Cultivation on a sensitivitydisc agar medium at 37° C. overnight."}, "[6]": {"system": "Escherichia coli NIHJ JC-2", "test": "Antimicrobial activity, agar dilution method", "format": "cell-based", "details": "NIHJJC2, inoculum 10^6 cells/ml, sensitivity disc agar, 37° C. overnight, read-out: Minimum Inhibitory Concentration", "experimental": "as §5, §6, §7, §8"}, "[7]": {"system": "Klebsiella pneumoniae SRL-1", "test": "Antimicrobial activity, agar dilution method", "format": "cell-based", "details": "SRL1, inoculum 10^6 cells/ml, sensitivity disc agar, 37° C. overnight, read-out: Minimum Inhibitory Concentration", "experimental": "as §5, §6, §7, §8"}, "[8]": {"system": "Klebsiella sp. 363(R)", "test": "Antimicrobial activity, agar dilution method", "format": "cell-based", "details": "inoculum 10^6 cells/ml, sensitivity disc agar, 37° C. overnight, read-out: Minimum Inhibitory Concentration", "experimental": "as §5, §6, §7, §8"}, "[9]": {"system": "Proteus mirabilis PR-4", "test": "Antimicrobial activity, agar dilution method", "format": "cell-based", "details": "PR4, inoculum 10^6 cells/ml, sensitivity disc agar, 37° C. overnight, read-out: Minimum Inhibitory Concentration", "experimental": "as §5, §6, §7, §8"}, "[10]": {"system": "Pseudomonas aeruginosa ATCC 25619", "test": "Antimicrobial activity, agar dilution method", "format": "cell-based", "details": "ATCC25619, inoculum 10^6 cells/ml, sensitivity disc agar, 37° C. overnight, read-out: Minimum Inhibitory Concentration", "experimental": "as §5, §6, §7, §8"}, "[11]": {"system": "Staphylococcus aureus 209P JC-1", "test": "Antimicrobial activity, agar dilution method", "format": "cell-based", "details": "inoculum 10^6 cells/ml, sensitivity disc agar, 37° C. overnight, read-out: Minimum Inhibitory Concentration", "experimental": "as §5, §6, §7, §8"}, "[12]": {"system": "Streptococcus pneumoniae I", "test": "Antimicrobial activity, agar dilution method", "format": "cell-based", "details": "inoculum 10^6 cells/ml, sensitivity disc agar, 37° C. overnight, read-out: Minimum Inhibitory Concentration", "experimental": "as §5, §6, §7, §8"}}, "data": [{"smiles": "C[C@H](OS(=O)(=O)O)[C@@H]1C(=O)N2C(C(=O)O)=C([S@+]([O-])CCO)C[C@H]12", "note": "[PA-41746-E]", "values": [{"measurement": "Minimum Inhibitory Concentration (inhibition of substrate hydrolysis by β-lactamase)", "setting": "[1]", "value": 0.016, "unit": "µg/mL"}, {"measurement": "Minimum Inhibitory Concentration (inhibition of substrate hydrolysis by β-lactamase)", "setting": "[2]", "value": 0.008, "unit": "µg/mL"}, {"measurement": "antimicrobial activities", "setting": "[3]", "value": "antimicrobial activities against Gram-positive and Gram-negative microorganisms"}, {"measurement": "β-lactamase inhibitory activities", "setting": "[4]", "value": "excellent β-lactamase inhibitory activities"}]}, {"smiles": "C[C@H](OS(=O)(=O)O)[C@@H]1C(=O)N2C(C(=O)O)=C(S(=O)O)C[C@H]12", "note": "[PA-41746-A2]", "values": [{"measurement": "MIC", "setting": "[5]", "value": 6.25, "unit": "µg/mL"}, {"measurement": "MIC", "setting": "[6]", "value": 1.56, "unit": "µg/mL"}, {"measurement": "MIC", "setting": "[7]", "value": 1.56, "unit": "µg/mL"}, {"measurement": "MIC", "setting": "[8]", "value": 1.56, "unit": "µg/mL"}, {"measurement": "MIC", "setting": "[9]", "value": 3.13, "unit": "µg/mL"}, {"measurement": "MIC", "setting": "[10]", "value": "> 100", "unit": "µg/mL"}, {"measurement": "MIC", "setting": "[11]", "value": 12.5, "unit": "µg/mL"}, {"measurement": "MIC", "setting": "[12]", "value": 1.56, "unit": "µg/mL"}, {"measurement": "Minimum Inhibitory Concentration (inhibition of substrate hydrolysis by β-lactamase)", "setting": "[1]", "value": 0.008, "unit": "µg/mL"}, {"measurement": "Minimum Inhibitory Concentration (inhibition of substrate hydrolysis by β-lactamase)", "setting": "[2]", "value": 1.0, "unit": "µg/mL"}, {"measurement": "antimicrobial activities", "setting": "[3]", "value": "antimicrobial activities against Gram-positive and Gram-negative microorganisms"}, {"measurement": "β-lactamase inhibitory activities", "setting": "[4]", "value": "excellent β-lactamase inhibitory activities"}]}, {"smiles": "CC(=O)NCC[S@@+]([O-])C1=C(C(=O)O)N2C(=O)[C@@H]([C@H](C)OS(=O)(=O)O)[C@H]2C1", "note": "[PA-41746-F]", "values": [{"measurement": "Minimum Inhibitory Concentration (inhibition of substrate hydrolysis by β-lactamase)", "setting": "[1]", "value": 0.002, "unit": "µg/mL"}, {"measurement": "Minimum Inhibitory Concentration (inhibition of substrate hydrolysis by β-lactamase)", "setting": "[2]", "value": 0.002, "unit": "µg/mL"}, {"measurement": "antimicrobial activities", "setting": "[3]", "value": "antimicrobial activities against Gram-positive and Gram-negative microorganisms"}, {"measurement": "β-lactamase inhibitory activities", "setting": "[4]", "value": "excellent β-lactamase inhibitory activities"}]}]}
